Reference: US5877210A, “Phosphotyrosine phosphatase inhibitors or phosphotyrosine kinase activators for controlling cellular proliferation” (priority 1995, dated 1999)
“Also recorded” adds a separate entry of the source.

Key:
[1] = tested on: PP1; experiment: Serine/threonine phosphatase PP1 inhibition; format: biochemical; settings: vs CD45 and PTP1B
[2] = tested on: PHA-induced T cell blasts; experiment: Ca2+ signaling in PHA T cell blasts; format: cell-based, human
Protocol: Ca^2+ responses were measured using indo-1 (Molecular Probes, Eugene, Oreg.) and a model 50 HH/2150 flow cytometer (Ortho, Westwood, Mass.) as previously described (P. S. Rabinovitch et al., J. Immunol. 137:952-961 (1986)). The histograms were analyzed by programs (Cicero, Cytomation Inc., Ft. Collins, Colo.) that calculate the mean indo-1 violet/blue fluorescence ratio versus time. There are 100 data points on the X (time) axis for all flow cytometric data.
(§1) In the experiments shown in FIG. 25, human PHA-induced T cell blasts were treated overnight with the indicated concentrations of BMLOV. In Panel A, the baseline level of intracellular free Ca^2+ ([Ca^2+ ]i) was established for 1 min, and then the cells were treated with biotinylated anti-CD3 mAb (G19-4). After 5 min avidin was added (gap in the trace) to cross-link the antibody. In Panel B, assays were performed as in Panel A, but in the presence of 5 mM EGTA. […] In the experiments shown in FIG. 26, cells were treated 16 h with BMLOV and then stimulated with anti-CD3 mAb G19-4 for 5 min. Cells were then washed and resuspended in fresh media at equal concentrations of BMLOV at 37° C. Cells were then harvested and lysed at times following the initiation of CD3 stimulation as indicated. Antibody binding in immunoblots was detected by ECL.

[3] = tested on: T cells; experiment: Anti-phosphotyrosine immunoblot of T cell lysates, basal and anti-CD3 stimulated; format: cell-based; settings: 16 h, even at 50 μM BMLOV
Protocol: as §1

[4] = tested on: Lyn; experiment: Src-family kinase activity from treated Ramos cells; format: cell-based, human; settings: Ramos cells treated with BMLOV for 15 hours
Protocol: (§2) Treatment of Ramos cells with BMLOV for 15 hours inhibited the activity of the Src kinases Lyn and Fyn from the cells by approximately 50%.

[5] = tested on: Fyn; experiment: as above; format: cell-based, human; settings: Ramos cells treated with BMLOV for 15 hours
Protocol: as §2

[6] = tested on: MDAMB-453 breast carcinoma cells; experiment: Clonogenic assay in methylcellulose; format: cell-based; settings: dose as high as 100 μM BMLOV
Protocol: The selective cytotoxicity of BMLOV was examined in clonogenic assays. Cells were grown in methylcellulose media and the number of colonies formed after seven days of treatment with various doses of the drug were determined. The clonogenic assays were performed with six replicates for each treatment as described [F. M. Uckun et al., J. Exp. Med. 163:347-368 (1986); F. M. Uckun & J. A. Ledbetter, Proc. Natl. Acad. Sci. USA 85:8603-8607 (1988)). The data is given plus/minus the standard error of the mean.

[7] = tested on: calf intestinal alkaline phosphatase; experiment: Alkaline phosphatase inhibition; format: biochemical
[8] = tested on: normal tonsillar B cells; experiment: Normal tonsillar B cell proliferation; format: cell-based
Text: BMLOV can inhibit normal tonsillar B cell proliferation driven by stimulation of CD40 via either anti-CD40 antibody or gp39 ligand plus either anti-CD20 antibody or phorbol 12-myristate 13-acetate (PMA). […] Variations between the individuals from which the tonsils were derived could account for the differences between these experiments.

[9] = tested on: H3347 carcinoma cells; experiment: Anti-phosphotyrosine immunoblot; format: cell-based, human
[10] = tested on: normal peripheral B cells; experiment: Normal peripheral B cell [3H]-thymidine incorporation; format: cell-based, human
Protocol: In the experiment reported in Table 4, monoclonal antibodies to CD20 and CD40 were used to stimulate proliferation. Peripheral B cells were isolated from two healthy human volunteers. The cells were stimulated as listed in Table 4 and the effects of various doses of BMLOV on proliferation, as measured by [^3 H]-thymidine incorporation, were determined. BMLOV was able to inhibit proliferation induced by CD20, CD40, IL-4 and PMA in the various combinations tested. The cells from donor 2 were more sensitive, indicating some variation among individuals in their sensitivity to the drug.
Stimulation of CD20 was via monoclonal antibody 1F5 and stimulation of CD40 was via monoclonal antibody G28-5.
(§3) For assays of cellular proliferation, cells were grown five days in the presence of the indicated concentrations of BMLOV, pulsed 6 hr with [^3 H]-thymidine (New England Nuclear, Boston, Mass.), and counted in a liquid scintillation counter. Human peripheral blood lymphocytes (PBL) from normal volunteers were isolated from lymphocyte separation medium (Litton Bionetics, Kensington, Md.) by density gradient centrifugation. Monocytes were depleted from PBL by two rounds of plastic absorption for 30 minutes at 37° C. B cells were enriched for by negative selection using complement plus monoclonal antibodies to CD2, CD3, CD4, and CD8 for complement depletion. Clonogenic assays of colony formation in methylcellulose medium were performed as previously described (F. M. Uckun et al. (1992), supra).

[11] = tested on: BCL1; experiment: [3H]thymidine incorporation assay; format: cell-based, murine; settings: for [3H]cpm incorporation: seven days
Protocol: For each cell type, the cells were passaged uniformly for all drug doses given during the seven-day period. The cells were then pulsed for six hours with [^3 H]thymidine. The extent of DNA synthesis was then determined by counting the radioactivity incorporated into the cells.
as §3

[12] = tested on: HL-60 cells; experiment: Anti-phosphotyrosine immunoblot; format: cell-based, human

In the case of `Cc1occc(=O)c1[O-].Cc1occc(=O)c1[O-].[O]=[V+2]` [BMLOV, Bis(maltolato)oxovanadium (IV)], the “concentration for similar inhibition relative to phosphotyrosine phosphatases” value [1] is reported as “over 100 fold”, the “Ca2+ signals from crosslinking CD3 alone or with CD2 and CD4” value ([2]; 25-50 μM BMLOV) is reported as “prolong Ca^2+ signals” and the basal calcium levels ([2]; 50 to 100 μM BMLOV, fifteen hours) is reported as “markedly enhance basal calcium levels”. For the same compound, the “effect on CD28 Ca2+ signals” value ([2]; PHA T cell blasts) was “marked inhibition”, the “Ca2+ signaling in T cells” value ([2]; anti-CD3 cross-linking, BMLOV overnight (25 μM elsewhere in the source)) was “detectably stimulated Ca^2+ signaling; also recorded: increased and prolonged” and the “basal or T cell receptor induced cellular tyrosine phosphorylation” value [3] was “little effect on basal or T cell receptor induced cellular tyrosine phosphorylation”. The “inhibition of kinase activity” value [4] was “approximately 50%”, the “inhibition of kinase activity” value [5] was “approximately 50%” and the “inhibition of clonogenic growth” value [6] was “inhibited only moderately”. For the same compound, the “inhibition of calf intestinal alkaline phosphatase” value ([7]; 500 μM BMLOV) was “less than 10%”, the IC50 ([7]; Table 1, p-nitrophenyl phosphate substrate) was > 500 µM and the IC50 ([7]; Table 8) was > 500 µM. The effect on proliferation ([8]; first experiment (FIG. 3), 0.1 to 10 μM BMLOV) was “little effect on proliferation”, the effect on proliferation ([8]; second experiment (FIG. 4), 5 μM BMLOV) was “substantial inhibition of proliferation” and the effect on proliferation ([8]; second experiment (FIG. 4), 50 μM BMLOV) was “completely blocked proliferation”. The “induction of tyrosine phosphorylation” value [9] was “weakly induce tyrosine phosphorylation”, the “[3H]cpm incorporation” value ([10]; Donor #1, CD20 + CD40, 1 μM BMLOV) was 3619 cpm and the “[3H]cpm incorporation” value ([10]; Donor #1, CD20 + CD40, 5 μM BMLOV) was 3644 cpm. The “[3H]cpm incorporation” value ([10]; Donor #1, CD20 + CD40, 10 μM BMLOV) was 3422 cpm, the “[3H]cpm incorporation” value ([10]; Donor #1, CD20 + CD40, 25 μM BMLOV) was 2432 cpm and the “[3H]cpm incorporation” value ([10]; Donor #1, CD40 + IL4, 1 μM BMLOV) was 31966 cpm. The “[3H]cpm incorporation” value ([10]; Donor #1, CD40 + IL4, 5 μM BMLOV) was 33845 cpm, the “[3H]cpm incorporation” value ([10]; Donor #1, CD40 + IL4, 10 μM BMLOV) was 31637 cpm and the “[3H]cpm incorporation” value ([10]; Donor #1, CD40 + IL4, 25 μM BMLOV) was 24933 cpm. The “[3H]cpm incorporation” value ([10]; Donor #1, PMA + CD40, 1 μM BMLOV) was 62643 cpm, the “[3H]cpm incorporation” value ([10]; Donor #1, PMA + CD40, 5 μM BMLOV) was 58418 cpm and the “[3H]cpm incorporation” value ([10]; Donor #1, PMA + CD40, 10 μM BMLOV) was 45330 cpm. The “[3H]cpm incorporation” value ([10]; Donor #1, PMA + CD40, 25 μM BMLOV) was 25536 cpm, the “[3H]cpm incorporation” value ([10]; Donor #1, PMA + IL4, 1 μM BMLOV) was 61415 cpm and the “[3H]cpm incorporation” value ([10]; Donor #1, PMA + IL4, 5 μM BMLOV) was 48724 cpm. The “[3H]cpm incorporation” value ([10]; Donor #1, PMA + IL4, 10 μM BMLOV) was 45278 cpm, the “[3H]cpm incorporation” value ([10]; Donor #1, PMA + IL4, 25 μM BMLOV) was 14277 cpm and the “[3H]cpm incorporation” value ([10]; Donor #2, CD20 + CD40, 1 μM BMLOV) was 4593 cpm. The “[3H]cpm incorporation” value ([10]; Donor #2, CD20 + CD40, 5 μM BMLOV) was 5681 cpm, the “[3H]cpm incorporation” value ([10]; Donor #2, CD20 + CD40, 10 μM BMLOV) was 5269 cpm and the “[3H]cpm incorporation” value ([10]; Donor #2, CD20 + CD40, 25 μM BMLOV) was 856 cpm. For the same compound, the “[3H]cpm incorporation” value ([10]; Donor #2, CD40 + IL4, 1 μM BMLOV) was 16597 cpm, the “[3H]cpm incorporation” value ([10]; Donor #2, CD40 + IL4, 5 μM BMLOV) was 18824 cpm and the “[3H]cpm incorporation” value ([10]; Donor #2, CD40 + IL4, 10 μM BMLOV) was 12662 cpm. For the same compound, the “[3H]cpm incorporation” value ([10]; Donor #2, CD40 + IL4, 25 μM BMLOV) was 6013 cpm, the “[3H]cpm incorporation” value ([10]; Donor #2, PMA + CD40, 1 μM BMLOV) was 49102 cpm and the “[3H]cpm incorporation” value ([10]; Donor #2, PMA + CD40, 5 μM BMLOV) was 47624 cpm. For the same compound, the “[3H]cpm incorporation” value ([10]; Donor #2, PMA + CD40, 10 μM BMLOV) was 29024 cpm, the “[3H]cpm incorporation” value ([10]; Donor #2, PMA + CD40, 25 μM BMLOV) was 15671 cpm and the “[3H]cpm incorporation” value ([10]; Donor #2, PMA + IL4, 1 μM BMLOV) was 53642 cpm. The “[3H]cpm incorporation” value ([10]; Donor #2, PMA + IL4, 5 μM BMLOV) was 41892 cpm, the “[3H]cpm incorporation” value ([10]; Donor #2, PMA + IL4, 10 μM BMLOV) was 20313 cpm and the “[3H]cpm incorporation” value ([10]; Donor #2, PMA + IL4, 25 μM BMLOV) was 2730 cpm. The “[3H]cpm incorporation” value ([11]; 1 μM BMLOV) was 265036 cpm, the “[3H]cpm incorporation” value ([11]; 5 μM BMLOV) was 226714 cpm and the “[3H]cpm incorporation” value ([11]; 10 μM BMLOV) was 55396 cpm. For the same compound, the “[3H]cpm incorporation” value ([11]; 25 μM BMLOV) was 195 cpm, the “sensitivity of proliferation to BMLOV, in words” value ([11]; 25 μM, 5 or 7 days) was “highly sensitive” and the tyrosine phosphorylation response [12] was “showed a tyrosine phosphorylation response; also recorded: strong tyrosine phosphorylation was observed”.
